In patent publication US11311609B2, “Regulating chimeric antigen receptors” (DANA-FARBER CANCER INSTITUTE, INC., priority 2017, dated 2022):

Columns and labels:
[1] = system: CD19 positive tumor cells (Daudi, Raji); assay: Co-culture depletion of CD19 positive tumor cells by SMART-CAR expressing Jurkat T-cells, flow cytometry with CD19-FITC antibody; assay type: cell-based
Protocol: FIG. 28 is a schematic depicting the experimental setup used in FIG. 18 to evaluate the ability of SMART-CAR expressing Jurkat cells to deplete CD19-positive tumor cells. SMART-CAR expressing Jurkat cells are incubated with CD19-positive target tumor cells at the indicated ratio for a given amount of time (Example 25). CD19-positive target tumor cell depletion can be monitored by measuring levels of CD19.
FIG. 30 is a schematic depicting the experimental setup used in FIG. 21 and described in Example 26 to illustrate the chemical control of SMART-CAR expression and subsequent activity against CD19 positive tumor cells using dFKBP7. SMART-CAR expressing Jurkat cells were pretreated with dFKBP7 at 250 nM for 4 hours to allow for maximal degradation of SMART-CAR. The Jurkat cells were then harvested and washed three times to remove dFKBP7. Jurkat cells were split into two experimental arms. The first arm (top, blue) was treated with DMSO control and the second arm (bottom, green) was retreated with 250 nM dFKBP7. The two experimental arms were then mixed at a 1:1 ratio with CD19 positive tumor cells and CD19-positive tumor cells monitored by flow cytometry.
FIG. 33 is a line plot tracking CD19 positive tumor cells during alternating exposure and removal of 250 nM of dFKBP7 in a 30 hour time course. […]
FIG. 28 illustrates the experimental design to evaluate the functionality of SMART-CAR expressing Jurkat T-cells to deplete CD19 positive target tumor cells. […] Co-cultured cells were pelleted, stained with a CD19-FITC antibody, fixed, and CD19 levels measured via flow cytometry.
SMART-CAR expressing Jurkat cells were pretreated with dFKBP7 at 250 nM for 4 hours to allow for maximal degradation of SMART-CAR. […] The two experimental arms were then mixed at a 1:1 ratio with CD19 positive tumor cells and CD19-positive tumor cells monitored by flow cytometry. […]
FIG. 32 is a graph that exemplifies the linear relationship between number of SMART-CAR expressing T-cells and functional killing of CD19 positive target tumor cells. […] CD19 positive tumor cells were then quantified using flow cytometry with a directly conjugated CD19-FITC antibody. […]

CD19-CAR-dTAG = biological target: T1, CD19-CAR-dTAG (Homo sapiens, UniProt P62942+Q96SW2, F37V/H95N/M50V/V99I); assay: Immunoblot of CD19-CAR-dTAG degradation in Jurkat T-cells; assay type: cell-based
T1 construct: HA; expressed in transfected cells; host or cells: Jurkat T-cells, lentiviral transduction, blasticidin selection
Protocol: FIG. 14A and FIG. 14B are immunoblots of cells treated with heterobifunctional compounds described in the present invention.
FIG. 15A and FIG. 15B are immunoblots of cells treated with bi-functional molecules described in the present invention.
FIG. 16 is an immunoblot of cells treated with heterobifunctional compounds described in the present invention.
At 4 and 12 hours, the dFKBP7 was washed out of the Jurkat cells. At each indicated timepoint, Jurkat cells were harvest to monitor CD19-CAR-dTAG expression levels via immunoblot analysis. FIG. 17B is the resulting immunoblot from the experimental design in FIG. 17A.
Jurkat T-cells were transduced with lentivirus expressing CD19-CAR-dTAG. Cells were selected with blasticidin and expanded.
Jurkat T-cells were engineered to express CD19-CAR-dTAG. Cells were treated with the indicated dose of dFKBP7 or dFKBP13 for 4 hours before lysates were prepared for western immunoblot analysis.
Jurkat T-cells were engineered to express CD19-CAR-dTAG. Cells were treated with 250 nM dFKBP7 or dFKBP13 for the indicated time before lysates were prepared for immunoblot analysis.
At 4 and 12 hours, the dFKBP7 was washed out of the Jurkat cells. At each indicated timepoint, Jurkat cells were harvest to monitor CD19-CAR-dTAG expression levels via immunoblot analysis.

T1 sequence (P62942 with tags, fused parts or gaps F37V/M50V/H95N/V99I limits assumed): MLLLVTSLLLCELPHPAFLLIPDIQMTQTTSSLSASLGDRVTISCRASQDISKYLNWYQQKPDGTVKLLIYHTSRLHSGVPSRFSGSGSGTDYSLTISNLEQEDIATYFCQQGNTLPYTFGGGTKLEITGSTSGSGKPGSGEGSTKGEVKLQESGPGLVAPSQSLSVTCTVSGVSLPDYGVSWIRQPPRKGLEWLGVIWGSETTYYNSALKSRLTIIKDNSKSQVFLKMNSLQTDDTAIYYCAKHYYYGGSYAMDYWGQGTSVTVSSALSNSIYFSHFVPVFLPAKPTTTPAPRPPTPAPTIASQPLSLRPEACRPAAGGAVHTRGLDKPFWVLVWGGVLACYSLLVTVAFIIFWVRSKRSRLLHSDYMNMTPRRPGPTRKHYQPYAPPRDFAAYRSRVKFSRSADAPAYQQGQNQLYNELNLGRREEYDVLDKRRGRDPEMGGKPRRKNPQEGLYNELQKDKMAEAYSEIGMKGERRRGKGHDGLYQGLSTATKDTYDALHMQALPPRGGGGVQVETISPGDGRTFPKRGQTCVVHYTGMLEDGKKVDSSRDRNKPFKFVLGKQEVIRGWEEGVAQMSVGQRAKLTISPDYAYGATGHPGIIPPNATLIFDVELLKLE
T1 sequence (Q96SW2 whole entry): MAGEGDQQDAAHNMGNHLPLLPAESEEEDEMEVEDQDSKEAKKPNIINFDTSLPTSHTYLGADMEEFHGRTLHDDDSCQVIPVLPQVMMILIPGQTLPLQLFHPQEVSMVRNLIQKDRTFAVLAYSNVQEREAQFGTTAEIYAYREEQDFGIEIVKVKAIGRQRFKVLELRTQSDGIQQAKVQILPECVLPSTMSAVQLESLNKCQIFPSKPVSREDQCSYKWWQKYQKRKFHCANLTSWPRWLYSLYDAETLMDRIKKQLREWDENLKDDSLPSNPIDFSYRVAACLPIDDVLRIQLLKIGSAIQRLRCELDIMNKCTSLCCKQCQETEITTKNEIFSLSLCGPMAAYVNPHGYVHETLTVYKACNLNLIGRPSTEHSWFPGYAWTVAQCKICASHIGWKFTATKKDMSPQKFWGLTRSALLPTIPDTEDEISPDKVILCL
T1 sequence (Q16531 whole entry partner): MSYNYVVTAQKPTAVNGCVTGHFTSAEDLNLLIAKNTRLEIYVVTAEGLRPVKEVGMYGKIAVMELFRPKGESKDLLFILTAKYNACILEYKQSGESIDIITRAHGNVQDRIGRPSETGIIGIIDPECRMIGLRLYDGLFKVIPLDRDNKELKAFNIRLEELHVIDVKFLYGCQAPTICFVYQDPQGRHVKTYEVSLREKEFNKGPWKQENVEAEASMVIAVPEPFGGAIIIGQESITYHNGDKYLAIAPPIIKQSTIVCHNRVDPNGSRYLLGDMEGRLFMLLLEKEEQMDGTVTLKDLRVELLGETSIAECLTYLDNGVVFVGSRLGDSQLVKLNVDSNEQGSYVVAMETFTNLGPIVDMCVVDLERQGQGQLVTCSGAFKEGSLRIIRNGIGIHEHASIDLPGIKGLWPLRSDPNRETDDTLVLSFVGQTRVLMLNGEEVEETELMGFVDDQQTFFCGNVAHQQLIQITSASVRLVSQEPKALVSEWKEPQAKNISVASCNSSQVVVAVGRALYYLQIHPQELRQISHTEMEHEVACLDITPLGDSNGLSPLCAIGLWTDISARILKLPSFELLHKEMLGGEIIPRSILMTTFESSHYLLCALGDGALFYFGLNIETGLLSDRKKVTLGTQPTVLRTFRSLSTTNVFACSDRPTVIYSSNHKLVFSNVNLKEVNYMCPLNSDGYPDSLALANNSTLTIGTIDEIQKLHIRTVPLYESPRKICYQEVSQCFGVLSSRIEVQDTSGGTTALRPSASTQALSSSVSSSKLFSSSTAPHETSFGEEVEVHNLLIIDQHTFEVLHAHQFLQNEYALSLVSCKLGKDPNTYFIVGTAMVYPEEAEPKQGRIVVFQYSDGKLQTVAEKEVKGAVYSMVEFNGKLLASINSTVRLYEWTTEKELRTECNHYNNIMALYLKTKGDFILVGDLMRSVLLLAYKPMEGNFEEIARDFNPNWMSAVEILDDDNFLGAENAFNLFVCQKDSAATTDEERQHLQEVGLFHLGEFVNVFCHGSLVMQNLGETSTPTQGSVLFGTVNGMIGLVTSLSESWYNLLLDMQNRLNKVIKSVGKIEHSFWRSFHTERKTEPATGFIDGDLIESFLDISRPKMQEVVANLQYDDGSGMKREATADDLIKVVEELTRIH

CC[C@H](C(=O)N1CCCC[C@H]1C(=O)O[C@H](CCc1ccc(OC)c(OC)c1)c1cccc(OCC(=O)NCCCOCCOCCOCCCNC(=O)COc2cccc3c2C(=O)N(C2CCC(=O)NC2=O)C3=O)c1)c1cc(OC)c(OC)c(OC)c1 (some centres unmarked) [dFKBP7]
CD19 positive target tumor cell depletion in the presence of dFKBP7 ([1]; 1:3 ratio, 250 nM, 4 HR to 24 HR): halted
CD19 positive target tumor cell depletion after removal of dFKBP7 ([1]; 1:3 ratio, 24 HR-30 HR): rapid target tumor cell depletion
Daudi cell depletion, dose response ([1]; CD19 positive Daudi cells, 1:3 ratio, 24 hours, indicated concentrations): Daudi cell depletion was rescued
CD19 positive tumor cells ([1]; Daudi and Raji, 1:1 ratio, retreatment with 250 nM dFKBP7): not affected
Re-expression of CD19-CAR-dTAG protein after washout (CD19-CAR-dTAG; Jurkat T-cells, 250 nM for 4 hours, then washouts): recovered
Degradation of CD19-CAR-dTAG, time dependence (CD19-CAR-dTAG; Jurkat T-cells, 250 nM, indicated time): time-dependent degradation of CD19-CAR-dTAG
Degradation of CD19-CAR-dTAG, dose dependence (CD19-CAR-dTAG; Jurkat T-cells, indicated dose, 4 hours): dose-dependent degradation of CD19-CAR-dTAG
Rheostat chemical control of CD19-CAR-dTAG expression (CD19-CAR-dTAG; Jurkat cells, 250 nM at 0 and 8 hours, washed out at 4 and 12 hours): exquisite chemical control of CD19-CAR-dTAG protein levels allowing for modulation within hours
